Results from US8445522B2, “Substituted 2-(4-pyridyl)benzoxazoles, and compositions thereof, for use in arthropod pest control” (Sumitomo Chemical Company, Limited, priority 2009, dated 2013).

Legend:
Assay type in all cases: in vivo
rice brown planthopper [1] = test: Test Example 5: test diluent scattered on rice plant seedling, rice brown planthopper released; conditions: Nilaparvata lugens, 144 h; 500 ppm, 10 ml scattered on rice plant seedling, 30 first-instars released, counted after six days at 25° C.; read-out: Control value
Method: The formulations were diluted with water so that the concentration of the active ingredient became 500 ppm and thus test diluents were prepared. On the other hand, to a rice plant seedling (two weeks after seeding, second leaf development stage) planted in a plastic cup, any one of the diluents (10 ml) was scattered. After the drug solution scattered on the rice plant was dried, 30 first-instars of rice brown planthopper were released on the rice plant, which was kept in the green house at 25° C. for six days. Thereafter, the number of rice brown planthopper parasitic on rice plant was counted and the control value was calculated by the following equation. Control value(%)={1−(Cb×Tai)/(Cai×Tb)}×100 wherein each character represents the following meaning: Cb: number of insects in non-treated section before treatment Cai: number of insects in non-treated section during observation Tb: number of insects in treated section before treatment Tai: number of insects in treated section during observation

rice brown planthopper [2] = test: Test Example 6: plant foot irrigation of rice plant seedling, rice brown planthopper released after seven days; conditions: Nilaparvata lugens, 144 h; 500 ppm, 5 ml plant foot irrigation of rice seedling; first-instars released after seven days, counted six days after; read-out: Control value
Method: The formulations were diluted with water so that the concentration of the active ingredient became 500 ppm and thus test diluents were prepared. On the other hand, a plant foot of rice plant seedling (two weeks after seeding, second leaf development stage) planted in a plastic cup was irrigated with any one of diluents (5 ml). The seedling was kept in a green house of 25° C. for seven days. Thirty first-instars of rice brown planthopper were released to the seedling, which was kept in the green house at 25 C for six days. Thereafter, the number of survived rice brown planthopper parasitic on rice plant leaves was counted, and the control value was calculated by the following equation. Control value(%)={1−(Cb×Tai)/(Cai×Tb)}×100 wherein each character represents the following meaning: Cb: number of insects in non-treated section before treatment Cai: number of insects in non-treated section during observation Tb: number of insects in treated section before treatment Tai: number of insects in treated section during observation

cotton aphids [3] = test: Test Example 3: plant foot irrigation of cucumber seedling in plastic cup, cotton aphids inoculated after seven days; conditions: 144 h; 500 ppm, 5 ml plant foot irrigation, plastic cup; aphids inoculated after seven days at 25° C., counted six days after; read-out: Control value
Method: (§1) The formulations were diluted with water so that the concentration of the active ingredient became 500 ppm and thus test diluents were prepared. On the other hand, a plant foot of cucumber seedling (second true leaf development stage) planted in a plastic cup was irrigated with any one of diluents (5 ml). The seedling was kept in a green house of 25° C. for seven days. The cucumber leaves were inoculated with 30 cotton aphids (all stages) and kept in the green house for further six days. Thereafter, the number of survived cotton aphids parasitic on the cucumber leaves was counted, and the control value was calculated by the following equation. Control value(%)={1−(Cb×Tai)/(Cai×Tb)}×100 wherein each character represents the following meaning: Cb: number of insects in non-treated section before treatment Cai: number of insects in non-treated section during observation Tb: number of insects in treated section before treatment Tai: number of insects in treated section during observation

tobacco whitefly = test: Test Example 4: test diluent scattered on tomato seedling with hatched tobacco whitefly larvae; conditions: 168 h; 500 ppm, 10 ml/cup scattered on tomato seedling at larvae stage, counted after seven days at 25° C.; read-out: Control value
Method: The formulations were diluted with water so that the concentration of the active ingredient became 500 ppm and thus test diluents were prepared. On the other hand, by releasing tobacco whitefly imagos to a tomato seedling planted in a plastic cup to allow them to lay eggs for about 24 hours. The tomato seedling was kept in a green house for eight days. At the stage in which larvae hatched from the laid eggs, any of the test diluents was scattered at the rate of 10 ml/cup. The tomato seedling was kept in the greenhouse at 25° C. for seven days. The number of survived larvae on tomato leaves was counted, and the control value was calculated by the following equation. Control value(%)={1−(Cb×Tai)/(Cai×Tb)}×100 wherein each character represents the following meaning: Cb: number of insects in non-treated section before treatment Cai: number of insects in non-treated section during observation Tb: number of insects in treated section before treatment Tai: number of insects in treated section during observation

cotton aphids [4] = test: Test Example 2: plant foot irrigation of cucumber seedling in urethane mat, cotton aphids inoculated one day after treatment; conditions: 168 h; 500 ppm, 5 ml plant foot irrigation, urethane mat; aphids inoculated one day after treatment, counted seven days after; read-out: Control value
Method: as §1, with “urethane mat” for “plastic cup”, “One day after the treatment, the” for “The seedling was kept in a green house of 25° C. for seven days. The”, “stages). Further seven days after,” for “stages) and kept in the green house for further six days. Thereafter,”

[5] = tested on: cotton aphids (Aphis gossypii Glover); test: Test Example 1: test diluent scattered on cucumber seedling inoculated with cotton aphids; conditions: 120 h, 500 ppm active ingredient, 10 ml scattered on cucumber seedling, counted five days after scattering, read-out: Control value
Method: The formulations were diluted with water so that the concentration of the active ingredient became 500 ppm and thus test diluents were prepared. On the other hand, a cucumber seedling (second true leaf development stage) planted in a plastic cup was inoculated with about 30 cotton aphids (Aphis gossypii Glover) and allowed to stand for one day. To the seedling, any one of the diluents (10 ml) was scattered. Five days after the scattering, the number of survived cotton aphids parasitic on the cucumber leaves was counted, and the control value was calculated by the following equation. Control value(%)={1−(Cb×Tai)/(Cai×Tb)}×100 wherein each character represents the following meaning: Cb: the number of insects in non-treated section before treatment Cai: the number of insects in non-treated section during observation Tb: the number of insects in treated section before treatment Tai: the number of insects in treated section during observation

Row | Compound | pest or weed control at 500 ppm (rice brown planthopper [1]) | pest or weed control at 500 ppm (rice brown planthopper [2]) | pest or weed control at 500 ppm (cotton aphids [3]) | pest or weed control at 500 ppm (tobacco whitefly) | pest or weed control at 500 ppm (cotton aphids [4]) | pest or weed control at 500 ppm [5]
1 | FC(F)(F)c1cnc2oc(-c3ccncc3Cl)nc2c1 [Active Compound 139, 2-(3-chloropyridin-4-yl)-6-(trifluoromethyl)oxazolo[5,4-b]pyridine] | ≥ 90% | ≥ 90% |  |  |  | 
2 | FC(F)(F)c1cnc2oc(-c3ccncc3C(F)(F)F)nc2c1 [Active Compound 144, 6-trifluoromethyl-2-[3-(trifluoromethyl)pyridin-4-yl]-oxazolo[5,4-b]pyridine] |  |  | ≥ 90% |  |  | 
3 | COc1cnccc1-c1nc2cc(C(F)(F)F)cnc2o1 [Active Compound 145, 2-(3-methoxypyridin-4-yl)-6-(trifluoromethyl)oxazolo[5,4-b]pyridine] |  |  | ≥ 90% |  |  | 
4 | CCCc1ccc2oc(-c3ccncc3)nc2c1 [active compound 1, 5-propyl-2-(pyridin-4-yl)-benzoxazole] | ≥ 90% |  |  | ≥ 90% |  | 
5 | CC(C)(C)c1ccc2nc(-c3ccncc3)oc2c1 [active compound 8, 6-tert-butyl-2-(pyridin-4-yl)-benzoxazole] | ≥ 90% |  |  | ≥ 90% |  | 
6 | [O-][n+]1ccc(-c2nc3cc(C(F)(F)F)ccc3o2)c(Cl)c1 [active compound 19, 3-chloro-4-[5-(trifluoromethyl)benzoxazole-2-yl]pyridine N-oxide] |  |  | ≥ 90% |  | ≥ 90% | 
7 | Cc1c[n+]([O-])ccc1-c1nc2cc(C(F)(F)F)ccc2o1 [active compound 24, 3-methyl-4-[5-(trifluoromethyl)benzoxazole-2-yl]pyridine N-oxide] |  | ≥ 90% | ≥ 90% |  |  | 
8 | Fc1cnccc1-c1nc2cc(C(F)(F)F)ccc2o1 [active compound 25, 2-(3-fluoropyridin-4-yl)-5-(trifluoromethyl)benzoxazole] |  | ≥ 90% | ≥ 90% |  |  | 
9 | FC(F)(F)c1ccc2oc(-c3ccncc3-c3ccccc3)nc2c1 [active compound 32, 2-(3-phenylpyridin-4-yl)-5-(trifluoromethyl)benzoxazole] | ≥ 90% |  |  |  |  | 
10 | C#Cc1cnccc1-c1nc2cc(C(F)(F)F)ccc2o1 [active compound 34, 2-(3-ethynylpyridin-4-yl)-5-(trifluoromethyl)benzoxazole] | ≥ 90% |  |  | ≥ 90% |  | ≥ 90%
11 | FC(F)(F)CSc1cnccc1-c1nc2cc(C(F)(F)F)ccc2o1 [active compound 46, 2-[3-(2,2,2-trifluoroethylthio)pyridin-4-yl]-5-(trifluoromethyl)benzoxazole] | ≥ 90% | ≥ 90% |  | ≥ 90% |  | ≥ 90%
12 | Cc1cnn(-c2cnccc2-c2nc3cc(C(F)(F)F)ccc3o2)c1 [active compound 61, 2-[3-(4-methylpyrazole-1-yl)pyridin-4-yl]-5-(trifluoromethyl)benzoxazole] | ≥ 90% |  |  |  |  | ≥ 90%
13 | FC(F)(F)C(F)(c1ccc2oc(-c3ccncc3)nc2c1)C(F)(F)F [active compound 67, 2-(pyridin-4-yl)-5-(heptafluoroisopropyl)benzoxazole] | ≥ 90% |  |  |  |  | 
14 | COc1cnccc1-c1nc2cc3c(cc2o1)C(F)(F)OC3(F)F [active compound 88, 5,5,7,7-tetrafluoro-2-(3-methoxypyridin-4-yl)-5,7-dihydro-furo[3′,4′:4,5]benzo[1,2-d]oxazole] | ≥ 90% |  |  | ≥ 90% | ≥ 90% | ≥ 90%
15 | FC(F)(F)COc1cnccc1-c1nc2cc3c(cc2o1)C(F)(F)OC3(F)F [active compound 89, 5,5,7,7-tetrafluoro-2-[3-(2,2,2-trifluoroethoxy)pyridin-4-yl]-5,7-dihydro-furo[3′,4′:4,5]benzo[1,2-d]oxazole] | ≥ 90% |  |  | ≥ 90% |  | ≥ 90%
16 | CC(C)Oc1cnccc1-c1nc2cc3c(cc2o1)C(F)(F)OC3(F)F [active compound 97, 5,5,7,7-tetrafluoro-2-(3-isopropoxypyridin-4-yl)-5,7-dihydro-furo[3′,4′:4,5]benzo[1,2-d]oxazole] | ≥ 90% | ≥ 90% |  | ≥ 90% |  | ≥ 90%
17 | CCc1cnccc1-c1nc2cc3c(cc2o1)C(F)(F)OC3(F)F [active compound 98, 2-(3-ethylpyridin-4-yl)-5,5,7,7-tetrafluoro-5,7-dihydro-furo[3′,4′:4,5]benzo[1,2-d]oxazole] | ≥ 90% | ≥ 90% |  | ≥ 90% |  | ≥ 90%
18 | CC(C)(C)c1ccc2oc(-c3ccncc3C(F)(F)F)nc2c1 [active compound 107, 5-tert-butyl-2-(3-trifluoromethylpyridin-4-yl)benzoxazole] | ≥ 90% | ≥ 90% |  | ≥ 90% | ≥ 90% | 
19 | CCOCCOc1cnccc1-c1nc2cc(C(F)(F)F)ccc2o1 [active compound 122, 2-[3-(2-ethoxyethoxy)pyridin-4-yl]-5-(trifluoromethyl)benzoxazole] | ≥ 90% |  |  | ≥ 90% |  | ≥ 90%
20 | CCCCCOc1cnccc1-c1nc2cc(C(F)(F)F)ccc2o1 [active compound 123, 2-(3-pentyloxypyridin-4-yl)-5-(trifluoromethyl)benzoxazole] | ≥ 90% |  |  | ≥ 90% |  | 
21 | CS(=O)(=O)c1cnccc1-c1nc2cc(C(F)(F)F)ccc2o1 [active compound 135, 2-[3-(methanesulfonyl)pyridin-4-yl]-5-(trifluoromethyl)benzoxazole] |  |  | ≥ 90% |  |  | 
22 | FC(F)(F)c1cnc2oc(-c3ccncc3)nc2c1 [active compound 138, 2-pyridin-4-yl-6-(trifluoromethyl)oxazolo[5,4-b]pyridine] | ≥ 90% |  |  |  |  | 
